Experiment [1] deals with T1, COX2 (Homo sapiens, UniProt P35354).
T1 construct: purchased Sino Biological Co. (Beijing, China)
T1 sequence (P35354 18-604): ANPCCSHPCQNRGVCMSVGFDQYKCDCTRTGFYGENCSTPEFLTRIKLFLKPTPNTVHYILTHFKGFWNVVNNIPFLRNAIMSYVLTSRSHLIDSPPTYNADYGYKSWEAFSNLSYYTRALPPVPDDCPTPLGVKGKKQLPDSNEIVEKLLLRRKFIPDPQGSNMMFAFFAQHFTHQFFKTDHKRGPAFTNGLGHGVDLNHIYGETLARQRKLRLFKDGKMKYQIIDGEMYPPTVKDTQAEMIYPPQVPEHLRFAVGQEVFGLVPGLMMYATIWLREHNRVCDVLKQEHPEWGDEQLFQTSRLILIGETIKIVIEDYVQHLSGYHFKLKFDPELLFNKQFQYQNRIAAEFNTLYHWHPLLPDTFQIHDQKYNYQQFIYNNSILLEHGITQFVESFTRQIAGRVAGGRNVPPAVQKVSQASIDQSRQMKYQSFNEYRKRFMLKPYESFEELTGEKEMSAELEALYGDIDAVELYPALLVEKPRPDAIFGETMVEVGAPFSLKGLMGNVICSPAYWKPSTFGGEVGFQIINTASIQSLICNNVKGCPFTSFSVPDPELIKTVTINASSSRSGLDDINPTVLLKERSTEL
Briefly: Fluorescence resonance energy transfer between COX2 and compound. Type of experiment: binding. The note with it: for J (effective spectral overlap): COX2 emission vs compound absorption, each 5.0 × 10^−8 mol∙L^−1; for r (separation distance between COX2 and compound): κ^2 = 2/3, N = 1.336, φ = 0.15. The text has this: The transfer of energy from the protein donor to the ligand acceptor is generally seen in strong protein–ligand complexes. In addition to divulging the binding activities, assessments of the energy transfer efficiency can reveal the distance between the ligand and the ligand binding site on the protein [47]. According to Förster theory, the efficiency depends not only on the orientation and distance of the molecules but also on the extent of overlap between the donor emission and acceptor absorption. The distance between the donor and acceptor must be in the 2 to 8 nm range [47, 48]. The overlaps of fluorescence emission spectrum of COX2 with absorption spectrum of compounds DB2, SC2 or YB2 are presented in Figure 5g–i, respectively. The energy transfer efficiency (E) from donor to acceptor was calculated by a widely used method:(6) E=R06/R06+r^6=F0−F/F0 (7) R06=8.79×10^−25κ^2N^−4φJ (8) J=∑^ F(λ)ε(λ)λ^4Δλ/∑^F(λ)Δλ
Here, r is the separation distance between the donor (COX2) and acceptor (DB2, SC2 or YB2). R0 is the Förster critical distance when E = 50%. κ^2 is the orientation space factor. N is the refractive index of medium surrounding the fluorophores. φ is the fluorescence quantum yield of the donor. J is overlap integral of the donor fluorescence emission spectrum and acceptor absorption spectrum. F(λ) is the fluorescence intensity of the protein at the wavelength λ, ε(λ) is the molar absorption coefficient of acceptor at λ. Using the values of κ^2 = 2/3, N = 1.336 and φ = 0.15 [49], J and r were calculated (Table 2).
(§1) The fluorescence intensity of the system was measured with a 1.0 cm quartz cell. COX2 protein was dissolved in PBS for a final concentration of 6.0 × 10^−8 mol∙L^−1. DB2, SC2 or YB2 stock solutions were prepared in singleton at 1.5 × 10^−3 mol∙L^−1 in PBS containing 0.1% DMSO. 2.0 mL COX2 solution was separately titrated by continuing additions of 10 μL compounds DB2, SC2 or YB2 solution). After incubation at 298 K or 310 K, fluorescence quenching spectra were recorded in the region 325-450 nm at a scan rate of 1200 nm∙min^−1. The local environment of Tyr and Trp residues was quite sensitive at 280 nm, so the excitation wavelength was set at this wavelength. Typically, 280 nm is also used to measure the changes in protein tertiary structure. The slit widths of emission and excitation were both fixed at 10 nm. To observe spectra behaviors of Tyr and Trp groups of COX2, the wavelength interval between the excitation and emission wavelengths (Δλ) was set as 15 nm and 60 nm, respectively. Three-dimensional fluorescence spectroscopy was obtained for an excitation range of 200–300 nm and an emission range of 325–400 nm. Appropriate buffer solutions, determined under the same operation conditions, were used as blanks. Each spectrum was recorded three times.

The target of experiment [2] is T1, COX2. Briefly: Fluorescence quenching of COX2 (Stern-Volmer, double logarithm, thermodynamic parameters). It counts as binding. The note with it: for KA relative to the control compound: 298 K and 310 K; for Kq (bimolecular quenching constant): Kq = Ksv/τ0; for Kd: read-out: KA (binding constant) (converted); for ΔH (enthalpy change) / ΔS (entropy change): from KA at 298 K and 310 K.
Excerpt: The emitted fluorescence spectra of COX2 solution (6.0 × 10^−8 mol∙L^−1) without and with an increasing concentration of compounds DB2, SC2 or YB2 (7.5 × 10^−6 mol∙L^−1 to 4.5 × 10^−5 mol∙L^−1) at different temperatures are shown in Figure 4a,b, Figure 4c,d or Figure 4e,f, respectively. […] The quenching constant Kq and Stern–Volmer constant Ksv at different temperatures are usually used to identify the quenching mechanisms, static or dynamic. The former is caused by ground-state complex formation, the latter is diffusion. For the static quenching mechanism, the quenching constant decreases with temperature increase. In this part, we calculated the Kq and Ksv values by using a universally accepted Stern–Volmer equation [38]:(1) F0/F=1+Kqτ0[Q]=1+Ksv[Q] where F0 and F are the protein fluorescence intensities in the absence and the presence of quencher (compounds DB2, SC2 or YB2), respectively. Kq = Ksv/ τ0 . τ0 is the fluorescence lifetime of the fluorophore without the quencher ([…]). [Q] is the concentration of quencher. The Stern-Volmer plots of COX2 fluorescence quenching by compounds DB2, SC2 or YB2 are presented in Figure 5a, Figure 5b or Figure 5c, respectively. According to Table 1, the Ksv and Kq values for all three systems (COX2-DB2, COX2-SC2 and COX2-YB2) decreased with increasing temperature. Therefore, we considered that the quenching was static quenching. To further verify that the system was static quenching, dynamic quenching was assumed first.
For the static quenching, we can use the double logarithm equation to obtain the binding constant (KA) and the number of binding sites per protein (n):(2) lgF0−F/F=lgKA+nlg[Q]
There are four main kinds of non-covalent forces between drugs and proteins. These are electrostatic force, hydrogen bonding, hydrophobic force and van der Waals force. The kind of interaction between compounds DB2, SC2 or YB2 and COX2 can be obtained from thermodynamic parameters, including the free energy change (ΔG), enthalpy change (ΔH) and entropy change (ΔS) of the reaction. The three thermodynamic parameters can be obtained according to the published equations [42, 44]:(3) ΔG=−RTlnK (4) lnK2/K1=ΔH(1/T1−1/T2)×1/R (5) ΔG=ΔH−TΔS
as §1

Experimental findings from PMC8587043, “An Investigation into the Interaction between Double Hydroxide-Based Antioxidant Benzophenone Derivatives and Cyclooxygenase 2” (Molecules, 2021) are described below.

Read-outs that look alike come from different tables or passages of the source.

With `CC(C)(C)c1ccc(C(=O)c2c(Cl)cc(O)c(O)c2O)cc1` [SC2], in experiment [1], the “J (effective spectral overlap)” value is on record as 1.55 ×10^−13 cm^3∙L∙mol^−1; the “r (separation distance between COX2 and compound)” value is listed as 6.62 nm. Further, in experiment [2] (298 K), the “Ksv (Stern-Volmer quenching constant)” value is 2.31 ± 0.988 ×10^4 L∙mol^−1, the “n (number of binding sites per protein)” value is recorded as 1.01 ± 0.0469, the “ΔG (free energy change)” value is -5.98 ± 0.0547 kcal/mol and the “Kq (bimolecular quenching constant)” value is reported as 2.31 ± 0.988 ×10^12 L∙mol^−1∙S^−1. The Kd in experiment [2] (298 K) is 41.7 µM. Further, in experiment [2], the “KA relative to the control compound” value is reported as “approximately an order of magnitude larger”, the “ΔH (enthalpy change)” value was -1.61 ± 2.18 kcal/mol and the “ΔS (entropy change)” value was found to be 61.2 ± 31.3 J∙K^−1. Also, in experiment [2] (310 K), the “Ksv (Stern-Volmer quenching constant)” value is given as 2.07 ± 1.03 ×10^4 L∙mol^−1, the “n (number of binding sites per protein)” value is listed as 1.02 ± 0.0731, the “ΔG (free energy change)” value is -6.14 ± 0.143 kcal/mol and the “Kq (bimolecular quenching constant)” value is reported as 2.07 ± 1.03 ×10^12 L∙mol^−1∙S^−1. Moreover, the Kd in experiment [2] (310 K) is 45.7 µM.

Take `CC(C)Cc1ccc(C(=O)c2c(Br)cc(O)c(O)c2O)cc1` [YB2]: in experiment [1], the “J (effective spectral overlap)” value is 1.72 ×10^−13 cm^3∙L∙mol^−1; the “r (separation distance between COX2 and compound)” value was found to be 6.47 nm. Moreover, in experiment [2] (298 K), the “Ksv (Stern-Volmer quenching constant)” value is 3.49 ± 1.69 ×10^4 L∙mol^−1, the “n (number of binding sites per protein)” value was found to be 1.07 ± 0.0551, the “ΔG (free energy change)” value was -6.55 ± 0.0241 kcal/mol and the “Kq (bimolecular quenching constant)” value is given as 3.49 ± 1.69 ×10^12 L∙mol^−1∙S^−1. The Kd in experiment [2] (298 K) was 15.7 µM. For the same compound, in experiment [2], the “KA relative to the control compound” value is on record as “approximately an order of magnitude larger”, the “ΔH (enthalpy change)” value was -4.95 ± 1.55 kcal/mol and the “ΔS (entropy change)” value was 22.6 ± 21.9 J∙K^−1. Further, in experiment [2] (310 K), the “Ksv (Stern-Volmer quenching constant)” value is 2.58 ± 0.562 ×10^4 L∙mol^−1, the “n (number of binding sites per protein)” value is listed as 1.07 ± 0.0306, the “ΔG (free energy change)” value was -6.62 ± 0.076 kcal/mol and the “Kq (bimolecular quenching constant)” value was 2.58 ± 0.562 ×10^12 L∙mol^−1∙S^−1. For the same compound, the Kd in experiment [2] (310 K) is 21.5 µM.

As to `CCCCc1ccc(C(=O)c2c(Br)cc(O)c(O)c2O)cc1` [DB2], in experiment [1], the “J (effective spectral overlap)” value is 1.64 ×10^−13 cm^3∙L∙mol^−1; the “r (separation distance between COX2 and compound)” value is 6.42 nm. In addition, in experiment [2] (298 K), the “Ksv (Stern-Volmer quenching constant)” value was 1.43 ± 0.188 ×10^4 L∙mol^−1, the “n (number of binding sites per protein)” value stood at 1.10 ± 0.0208, the “ΔG (free energy change)” value was -6.19 ± 0.0669 kcal/mol and the “Kq (bimolecular quenching constant)” value is 1.43 ± 0.188 ×10^12 L∙mol^−1∙S^−1. In experiment [2] (298 K), the Kd is 28.2 µM. In experiment [2], the “KA relative to the control compound” value is given as “approximately an order of magnitude larger”, the “ΔH (enthalpy change)” value was -14.7 ± 1.96 kcal/mol and the “ΔS (entropy change)” value is on record as −120 ± 28.1 J∙K^−1. In experiment [2] (310 K), the “Ksv (Stern-Volmer quenching constant)” value was 1.14 ± 0.380 ×10^4 L∙mol^−1, the “n (number of binding sites per protein)” value was found to be 1.03 ± 0.0633, the “ΔG (free energy change)” value was -5.88 ± 0.134 kcal/mol and the “Kq (bimolecular quenching constant)” value was 1.14 ± 0.380 ×10^12 L∙mol^−1∙S^−1. For the same compound, the Kd in experiment [2] (310 K) was 73.1 µM.
